Values after ≈ are worked out from the molar mass of the structure shown. Like-named read-outs stand apart in the source and are kept apart here.
How the values were obtained:
[1] = tested on: Hela S3 cultured cells; experiment: Effects upon Hela S3 cultured cells; type: cell-based; settings: Homo sapiens
Protocol: Table 3 indicates the effects of typical Compounds (I) against Hela S3 culture cells. In this table, IC50 denotes the concentration of the test compound capable of reducing the number of cells to 50% the number of untreated cells.
Cultured cells of Hela S3 were added to a MEM medium containing 10% (V/V) of bovine fetal serum and […] of glutamine to obtain a cell suspension of 3×10^4 cells/ml. The cell suspension was poured into each well (1 ml/well) of a 24 well-multiplate for culturing at 37° C. in an incubator containing carbon dioxide (5%) and air (95%). After 24 hours, samples were dissolved or suspended in PBS, ethanol or dimethylsulfoxide and added to the medium at different concentrations, followed by culturing at 37° C. for 72 hours in the same incubator. An aspirator was used to collect the medium from each well. The surface of each medium was washed by adding PBS (1 ml) gently, and then PBS was sucked out. PBS containing trypsin (0.05%) and EDTA (0.02%) was poured into each well. After pipetting, the number of cells in each suspension was counted by the use of a microcell counter (commercial product of Toa Iyo Denshi K.K., Japan). By reference to a curve showing the concentration vs. the number of cells, the IC50 (concentration of sample capable of reducing the number of cells to 50% of the number of control untreated cells) was measured.

[2] = tested on: Sarcoma 180 solid tumour; type: in vivo, ddy mouse; settings: C.I.=(LD50)/(ED50), ED50 = dose at T/C=0.5, i.v. (tail vein), 7 days
Source text: (§1) In this table, C.I. denotes chemotherapeutic index, calculated as C.I.=(LD50)/(ED50), wherein LD50 denotes the value of acute toxicity, and ED50 denotes the dose of a sample which is capable of reducing the volume of Sarcoma 180 solid tumour to 50% of the corresponding volume of the solid tumour of untreated group.
(§2) The test compound was abdominally administered once to ddy mice, each group consisting of 5 animals.
(§3) 5×10^6 cells of Sarcoma 180 solid tumour were abdominally implanted into a ddy mouse. 7 days after this, the cells were collected from the ascites fluid. The cells were washed once with physiological saline under sterile conditions and suspended in physiological saline to obtain a cell suspension containing 5×10^7 cells/ml of which 0.1 ml was implanted into a ddy male mouse (body weight 20±2 g) under the skin of the right armpit. The test compound was dissolved in physiological saline or the same solution containing Tween 80. 24 hours after implantation of the tumour cells, 0.1-0.2 ml of the solution containing the test compound was administered to the tail vein of each animal in the test group consisting of 5 animals. 7 days after the implantation, the major axis (a) and minor axis (b) of the tumour were measured to calculate the volume of the tumour as "a"×"b^2 "/2. The antitumour effect was indicated by T/C which is the ratio of the tumour volume in the test animals to the corresponding volume of the control (untreated) animals.
(§4) T/C ratios and the dose were respectively plotted on the ordinate using an arithmetic scale and on the abscissa using a logarithmic scale, the relationship between the dosage and the T/C ratio being converted to a straight line by the least squares method. From the straight tropic line thus-obtained, the dosage corresponding to a T/C=0.5 viz. ED50 was determined.

[3] = in vivo; settings: mouse, ip, single abdominal administration, ddy mice, 14 days, Behrens-Korber's method
Source text: as §1, §2

[4] = in vivo; design: species or system mice (ddy strain); settings: mouse, ip, ratio of dose reducing peripheral leucocytes to 4000 (per mm^3; i.p., 4 days) to ED50 (Sarcoma 180), read-out: (WBC4000)/(ED50)
Source text: as §1, §3, §4
Sarcoma 180 solid tumour cells (5×10^6) were subcutaneously implanted under the skin of the right armpit of each mouse (body weight 20±2 g) of a group consisting of 5 male mice (ddy strain). 24 hours after this, a test compound was intraperitoneally administered to each animal. 4 days later, blood (0.02 ml) was collected from the suborbital plexus vein of each tumour-carrying animal. The collected sample of blood was dispersed in 9.98 ml of Cellkit Seven solution. One drop of saponin solution was added to the sample to dissolve erythrocytes and then a microcell counter was used to measure the number of leucocytes. On graph paper, the number of leucocytes was plotted on the ordinate using an arithmetic scale, and the dosage was plotted on the abscissa using a logarithmic scale to show the relationship of the dosage to the number of peripheral leucocytes, from which the value of WBC4000 viz. a value capable of giving 4000 peripheral leucocytes per mm^3 (about half of the corresponding value in normal mice) was obtained.

[5] = concentration reducing number of Hela S3 cells to 50% of untreated, 72 hours at 37° C., read-out: IC50

| SMILES | IC50 ([1]; HeLa S3, 72 h) | C.I. (chemotherapeutic index) [2] | LD50 at 336 h [3] | selectivity ratio [4] | IC50 [1, 5] |
| --- | --- | --- | --- | --- | --- |
| CO[C@@]12[C@H](COC(N)=O)c3c(O)c(N=O)c(C)c(O)c3N1C[C@@H]1N[C@@H]12 [Example 1, [1aS-(1aα,8β,8aα,8bα)]-8-{[(aminocarbonyl)oxy]methyl}-4,7-dihydroxy-1,1a,2,8,8a,8b-hexahydro-8a-methoxy-5-methyl-6-nitroso-azirino[2',3':3,4]pyrrolo[1,2-a]indole] | 1.14 µg/mL (≈ 3.24 µM) | 2.0 | 53 mg/kg | 0.7 | – |
| CO[C@@]12[C@H](CO)c3c(O)c(N=O)c(C)c(O)c3N1C[C@@H]1N[C@@H]12 [Example 4, [1aS-(1aα, 8β, 8aα, 8bα)]-4,7-dihydroxy-1,1a,2,8,8a,8b-hexahydro-8-hydroxymethyl-8a-methoxy-5-methyl-6-nitroso-azirino [2',3':3,4]pyrrolo[1,2-a]indole] | – | 2.8 | 100 mg/kg | > 1.4 | – |
| COc1c(C)c(N=O)c(O)c2c1N1C[C@@H]3N[C@@H]3[C@]1(OC)[C@@H]2COC(N)=O [Example 6] | 0.005 µg/mL (≈ 0.0137 µM) | 5.6 | 75 mg/kg | 2.7 | – |
| COc1c(C)c(N=O)c(O)c2c1N1C[C@H]3[C@H](N3C)[C@]1(OC)[C@@H]2COC(N)=O (stereo partly drawn) [Example 7, [1aS-(1aα, 8α, 8aα, 8bα)]-8-{[(aminocarbonyl)oxy]methyl}-4,8a-dimethoxy-1,5-dimethyl-1,1a,2,8,8a,8b-hexahydro-7-hydroxy-6-nitroso-azirino-[2',3':3,4]-pyrrolo[1,2-a]indole] | 0.013 µg/mL (≈ 0.0344 µM) | – | – | – | – |
| COc1c(N=O)c(C)c(OC)c2c1[C@@H](COC(N)=O)[C@@]1(OC)[C@H]3N[C@H]3CN21 [Example 8, [1aS-(1aα, 8β, 8aα, 8bα)]-8-{[(aminocarbonyl)oxy]methyl}-1,1a,2,8,8a,8b-hexahydro-5-methyl-6-nitroso-4,7,8a-trimethoxy-azirino [2',3':3,4]pyrrolo[1,2-a]indole] | 0.2 µg/mL (≈ 0.529 µM) | 2.1 | 100 mg/kg | 1.1 | – |
| COc1c(C)c(N=O)c(O)c2c1N1C[C@@H]3N[C@@H]3[C@]1(OC)[C@@H]2CO [Example 9, [1aS-(1aα, 8β, 8aα, 8bα)]-4,8a-dimethoxy-1,1a,2,8,8a,8b-hexahydro-7-hydroxy-8-hydroxymethyl-5-methyl-6-nitroso-azirino[2',3':3,4]pyrrolo [1,2-a]indole] | 0.005 µg/mL (≈ 0.0156 µM) | – | – | – | – |
| COc1c(C)c(N=O)c(O)c2c1N1C[C@H]3[C@H](N3C)[C@]1(O)[C@H]2COC(N)=O (some centres unmarked) [Example 10] | 0.004 µg/mL (≈ 0.011 µM) | > 0.56 | > 100 mg/kg | > 0.56 | – |
| CO[C@@]12[C@H](COC(N)=O)c3c(O)c(N=O)c(C)c(OC(C)=O)c3N1C[C@H]1[C@@H]2N1C(C)=O [Example 11, [1aS-(1aα, 8β, 8aα, 8bα)]-1-acetyl-4-acetyloxy-8-{[(aminocarbonyl)oxy]methyl}-1,1a,2,8,8a,8b-hexahydro-7-hydroxy-8a-methoxy-5-methyl-6-nitroso-azirino[2',3':3,4]pyrrolo[1,2-a]indole] | – | 2.0 | 38 mg/kg | 0.9 | 0.02 µg/mL (≈ 0.046 µM) |
| CO[C@@]12[C@H](COC(N)=O)c3c(O)c(N=O)c(C)c(OCC(C)C)c3N1C[C@@H]1N[C@@H]12 [Example 13, [1aS-(1aα, 8β, 8aα, 8bα)]-8-{[(aminocarbonyl)oxy]methyl}-1,1a,2,8,8a,8b-hexahydro-7-hydroxy-4-isobutyloxy-8a-methoxy-5-methyl-6-nitroso-azirino[2',3':3,4]pyrrolo[1,2-a]indole] | – | > 0.74 | > 100 mg/kg | > 0.74 | – |
| CO[C@@]12[C@H](COC(N)=O)c3c(O)c(N=O)c(C)c(OS(=O)(=O)c4ccc(C)cc4)c3N1C[C@@H]1N[C@@H]12 [Example 15, [1aS-(1aα,8β,8aα,8bα)]-8-{[(aminocarbonyl)oxy]methyl}-1,1a,2,8,8a,8b-hexahydro-7-hydroxy-8a-methoxy-5-methyl-6-nitroso-4-[(p-toluenesuIfonyl)oxy]azirino[2',3':3,4]pyrrolo[1,2-a]indole] | 0.027 µg/mL (≈ 0.0535 µM) | 2.6 | 56 mg/kg | 3.9 | – |
| CO[C@@]12[C@H](COC(N)=O)c3c(O)c(N=NC(=O)c4ccccc4)c(C)c(O)c3N1C[C@@H]1N[C@@H]12 [Example 17, [1aS-(1aα,8β,8aα,8bα)]-8-{[(aminocarbonyl)oxy]methyl}-6-[(benzoyl)azo-]-4,7-dihydroxy-1,1a,2,8,8a,8b-hexahydro-8a-methoxy-5-methyl-azirino-[2',3':3,4]pyrrolo[1,2-a]indole] | 14.9 µg/mL (≈ 32.9 µM) | – | – | – | – |
| CO[C@@]12[C@H](COC(N)=O)c3c(O)c(N=NC(C)=O)c(C)c(O)c3N1C[C@@H]1N[C@@H]12 [Example 18, [1aS-(1aα,8β,8aα,8bα)]-6-[(acetyl)azo]-8-{[(aminocarbonyl)oxy]methyl}-4,7-dihydroxy-1,1a,2,8,8a,8b-hexahydro-8a-methoxy-5-methyl-azirino[2',3':3,4]pyrrolo[1,2-a]indole] | 0.54 µg/mL (≈ 1.38 µM) | – | – | – | – |
| CO[C@@]12[C@H](COC(N)=O)c3c(O)c(N=NC(=O)c4ccccc4)c(C)c(O)c3N1C[C@H]1[C@@H]2N1C (stereo partly drawn) [Example 21, [1aS-(1aα,8β,8aα,8bα)]-8-{[(aminocarbonyl)oxy]methyl}-6-[(benzoyl)azo]-4,7-dihydroxy-1,5-dimethyl-1,1a,2,8,8a,8b-hexahydro-8a-methoxy-azirino[2',3':3,4]pyrrolo[1,2-a]indole] | 0.75 µg/mL (≈ 1.6 µM) | > 1.0 | > 100 mg/kg | 0.62 | – |
| CO[C@@]12[C@H](CO)c3c(O)c(N=NC(=O)c4ccccc4)c(C)c(O)c3N1C[C@H]1[C@@H]2N1C (stereo partly drawn) [Example 22, [1aS-(1aα,8β,8aα,8bα)]-6-[(benzoyl)azo]-4,7-dihydroxy-1,5-dimethyl-1,1a,2,8,8a,8b-hexahydro-8-hydroxymethyl-8a-methoxy-azirino-[2',3':3,4[pyrrolo]1,2-a]indole] | 0.131 µg/mL (≈ 0.309 µM) | – | – | – | – |
| COC(=O)N=Nc1c(C)c(O)c2c(c1O)[C@@H](COC(N)=O)[C@@]1(OC)[C@H]3N[C@H]3CN21 [Example 24] | 0.012 µg/mL (≈ 0.0295 µM) | – | > 100 mg/kg | – | – |
| CO[C@@]12[C@H](COC(N)=O)c3c(O)c(N=NC(N)=O)c(C)c(O)c3N1C[C@@H]1N[C@@H]12 [Example 25] | 0.003 µg/mL (≈ 0.00765 µM) | – | – | – | – |
| CO[C@@]12[C@H](COC(N)=O)c3c(O)c(N=NC(=O)c4ccccc4O)c(C)c(O)c3N1C[C@@H]1N[C@@H]12 [Example 28, [1aS-(1aα,8β,8aα,8bα)]-8-{[(aminocarbonyl)oxy]methyl}-4,7-dihydroxy-1,1a,2,8,8a,8b-hexahydro-6-[(2"-hydroxybenzoyl)azo]-8a-methoxy-5-methyl-azirino [2',3':3,4]pyrrolo[1,2-a]indole] | 0.08 µg/mL (≈ 0.17 µM) | – | – | – | – |
| CO[C@@]12[C@H](COC(N)=O)c3c(O)c(N=NC(=S)SC)c(C)c(O)c3N1C[C@@H]1N[C@@H]12 [Example 31] | – | 2.5 | 50 mg/kg | 1.1 | – |
| CO[C@@]12[C@H](COC(N)=O)C3=C(C(=O)C(C)=C(N)C3=O)N1C[C@@H]1N[C@@H]12 [mitomycin C, reference compound] | – | – | – | – | 0.004 µg/mL (≈ 0.012 µM) |
